Values quoted from earlier work as cited in patent publication US20090092692A1, “The use of onion extracts to prevent and treat acute and chronic cardiac and vascular complications and their sequelae, as well as to resolve hematomas” (priority 2007, published 2009).

System: platelet
Details: low doses of aspirin, vasoocclusive disease

CC(=O)Oc1ccccc1C(=O)O [aspirin, Acetyl salicylic acid]
incidence of major haemorrhage: less than 1%
major outcome (death or further MI): approximately 60%
